Values after ≈ are worked out from the molar mass of the structure shown.
Tested on: Histophilus somni
Test: minimum inhibitory concentration (MIC)
Protocol: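 Broth microdilution MIC (Sensititre BOPO7F bovine plate, CLSI methods) of 19 antimicrobials against field isolates of P. multocida, M. haemolytica, H. somni (deep nasopharyngeal swabs) and E. coli, Enterococcus spp. (rectal swabs) from weaned dairy heifers. Incubation 16-24 h at 35 C. MIC is the lowest concentration preventing visible growth. Values with <= or > lie at the tested range limits. Trimethoprim-sulfamethoxazole is given as the trimethoprim component of a 1:19 mixture.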

CN[C@@H]1[C@H](O)[C@H](NC)[C@H]2O[C@@]3(O)C(=O)C[C@@H](C)O[C@H]3O[C@@H]2[C@H]1O [Spectinomycin]
Conditions | minimum inhibitory concentration [µg/mL]
isolate (source animal id): 3 | > 64
isolate (source animal id): 4 | > 64
isolate (source animal id): 7 | ≤ 8
isolate (source animal id): 14 | 16 (≈ 48.1 µM)
isolate (source animal id): 15 | > 64
isolate (source animal id): 17 | ≤ 8
isolate (source animal id): 18 | > 64
isolate (source animal id): 20 | 16 (≈ 48.1 µM)
isolate (source animal id): 23 | 16 (≈ 48.1 µM)
isolate (source animal id): 45 | 16 (≈ 48.1 µM)
isolate (source animal id): 53 | ≤ 8
isolate (source animal id): 83 | ≤ 8
isolate (source animal id): 88 | > 64
isolate (source animal id): 92 | 32 (≈ 96.3 µM)
isolate (source animal id): 93 | 64 (≈ 193 µM)
isolate (source animal id): 99 | 16 (≈ 48.1 µM)
isolate (source animal id): 100 | 16 (≈ 48.1 µM)
isolate (source animal id): 105 | 16 (≈ 48.1 µM)
isolate (source animal id): 107 | 16 (≈ 48.1 µM)
isolate (source animal id): 108 | 16 (≈ 48.1 µM)
isolate (source animal id): 109 | 16 (≈ 48.1 µM)
isolate (source animal id): 110 | 32 (≈ 96.3 µM)
isolate (source animal id): 117 | > 64
isolate (source animal id): 121 | > 64
isolate (source animal id): 123 | > 64
isolate (source animal id): 124 | > 64
isolate (source animal id): 127 | > 64
isolate (source animal id): 128 | > 64
isolate (source animal id): 130 | > 64
isolate (source animal id): 132 | > 64
isolate (source animal id): 135 | ≤ 8
isolate (source animal id): 140 | > 64
isolate (source animal id): 141 | 16 (≈ 48.1 µM)
isolate (source animal id): 142 | 32 (≈ 96.3 µM)
isolate (source animal id): 144 | > 64
isolate (source animal id): 146 | 64 (≈ 193 µM)
isolate (source animal id): 147 | 16 (≈ 48.1 µM)
isolate (source animal id): 151 | > 64
isolate (source animal id): 153 | > 64
isolate (source animal id): 154 | 16 (≈ 48.1 µM)
isolate (source animal id): 156 | 16 (≈ 48.1 µM)
isolate (source animal id): 157 | > 64
isolate (source animal id): 176 | > 64
isolate (source animal id): 183 | > 64
isolate (source animal id): 186 | > 64
isolate (source animal id): 196 | > 64
isolate (source animal id): 198 | > 64
isolate (source animal id): 200 | > 64
isolate (source animal id): 206 | > 64
isolate (source animal id): 208 | > 64
isolate (source animal id): 210 | > 64
isolate (source animal id): 212 | > 64
isolate (source animal id): 215 | > 64
isolate (source animal id): 216 | > 64
isolate (source animal id): 218 | > 64
isolate (source animal id): 219 | > 64
isolate (source animal id): 224 | > 64
isolate (source animal id): 228 | > 64
isolate (source animal id): 230 | > 64
isolate (source animal id): 233 | 64 (≈ 193 µM)
isolate (source animal id): 238 | > 64
isolate (source animal id): 239 | > 64
isolate (source animal id): 241 | > 64
isolate (source animal id): 242 | > 64
isolate (source animal id): 243 | > 64
isolate (source animal id): 245 | ≤ 8
isolate (source animal id): 246 | > 64
isolate (source animal id): 247 | > 64
isolate (source animal id): 248 | ≤ 8
isolate (source animal id): 250 | > 64
isolate (source animal id): 251 | > 64
isolate (source animal id): 252 | 64 (≈ 193 µM)
isolate (source animal id): 254 | > 64
isolate (source animal id): 258 | > 64
isolate (source animal id): 259 | > 64
isolate (source animal id): 262 | > 64
isolate (source animal id): 264 | 32 (≈ 96.3 µM)
isolate (source animal id): 265 | 16 (≈ 48.1 µM)
isolate (source animal id): 266 | > 64
isolate (source animal id): 267 | > 64
isolate (source animal id): 269 | > 64
isolate (source animal id): 271 | > 64
isolate (source animal id): 272 | 16 (≈ 48.1 µM)
isolate (source animal id): 274 | > 64
isolate (source animal id): 276 | ≤ 8
isolate (source animal id): 278 | > 64
isolate (source animal id): 280 | 16 (≈ 48.1 µM)
isolate (source animal id): 281 | > 64
isolate (source animal id): 283 | > 64
isolate (source animal id): 288 | > 64
isolate (source animal id): 291 | > 64
isolate (source animal id): 292 | > 64
isolate (source animal id): 296 | > 64
isolate (source animal id): 306 | > 64
isolate (source animal id): 336 | > 64
isolate (source animal id): 337 | > 64
isolate (source animal id): 341 | > 64
